{"source": "patent US5661156A", "about": "“Rapamycin derivatives” (SmithKline Beecham Corporation, priority 1995, dated 1997)", "key": {"[1]": {"test_system": "Spleen cells from BDF1 female mice", "assay": "Mitogenesis Assay for Immunosuppressive Activity (concanavalin A, 3H-thymidine)", "assay_type": "cell-based", "conditions": "BDF1 mouse spleen cells, Concanavalin A 5 μg/ml, 72 hours, 3H-thimidine last 18 hours", "protocol": "(§1) Mitogenesis Assay for Immunosuppressive Activity\nSpleen cells from BDF1 female mice were established in RPMI with 10% fetal calf serum at 5×10^6 /mL. One hundred […] of this suspension (5×10^5 cells) were dispensed into 96-well round-bottomed microtiter plates (Linbro, Flow Laboratories). Concanavalin A (5 μg/ml)was added as the mitogenic stimulus, and the final volume in the microtiter wells was adjusted to 200 μL with RPMI. Cell cultures were incubated for 72 hours at 37° C. in a 5% CO2 atmosphere and pulsed with 0.5 μCi ^3 H-thymidine (specific activity […]) for the last 18 hours of the 72 hour culture. The cells were harvested on an automated multiple sample harvester and cell-associated radioactivity counted in a Beckman liquid scintillation counter. The results are expressed as the mean values derived from quadruplicate measurements. Cell viability was determined by trypan blue exclusion after 72 hours of incubation. Compounds to be tested were added to the microtiter plates at the appropriate dilutions prior to the addition of cells."}, "Saccharomyces cerevisiae": {"test_system": "Saccharomyces cerevisiae", "assay": "Assay for Antifungal Activity (zones of inhibition on agar)", "assay_type": "cell-based", "conditions": "YPD agar wells, 48 hours", "protocol": "Assay for Antifungal Activity\nYeast organism (Saccharomyces cerevisiae) in logarithmic growth were plated on complete agar medium (YPD). Compounds dissolved in an appropriate aqueous or organic solvent were placed in wells punched in the agar. Plates were incubated for 48 hours and zones of inhibition were measured.\nas §1"}}, "data": [{"compound": "CO[C@H]1C[C@@H]2CC[C@@H](C)[C@](O)(CC(=O)N3CCCC[C@H]3C(=O)O[C@H]([C@H](C)C[C@@H]3CC[C@@H](O)[C@H](OC)C3)CC(=O)[C@H](C)/C=C(\\C)[C@@H](O)[C@@H](OC)C(=O)[C@H](C)C[C@H](C)/C=C/C=C/C=C/1C)O2", "note": "[Example 3, 14-Deoxorapamycin]", "values": [{"measurement": "IC50", "setting": "[1]", "result": 15, "unit": "nM"}]}, {"compound": "CO[C@H]1CCC[C@@H](C[C@@H](C)[C@@H]2CC(=O)[C@H](C)/C=C(\\C)[C@@H](O)[C@@H](OC)C(=O)[C@H](C)C[C@H](C)/C=C/C=C/C=C(\\C)[C@@H](OC)C[C@@H]3CC[C@@H](C)[C@@](O)(O3)C(=O)C(=O)N3CCCC[C@H]3C(=O)O2)C1", "note": "[Example 1, 43-Deshydroxyrapamycin]", "values": [{"measurement": "IC50", "setting": "[1]", "result": 0.5, "unit": "nM"}]}, {"compound": "14-Desoxo-13-Methoxy-Rapamycin", "values": [{"measurement": "Yeast IC12", "setting": "Saccharomyces cerevisiae", "result": 52, "unit": "ng/mL"}, {"measurement": "IC50", "setting": "[1]", "result": 1000, "unit": "nM"}]}]}
